{"source": "patent US9969698B2", "about": "“Quinoxalinyl-piperazinamide methods of use” (REXAHN PHARMACEUTICALS, INC., priority 2015, dated 2018)", "key": {"[1]": {"test": "Solubility assessment in solvents", "format": "physicochemical", "settings": "organic solvent or mixture, thermodynamic from solid", "description": "RX-5902 (ca. 2 mg) was weighed in a 1.5 ml clear glass vials. An aliquot of the corresponding solvent or solvent mixture was added at RT and solubility was assessed after 10 min as shown in Table 12. Solutions and suspensions were then placed into a shaking chamber at 50° C. for 10 more minutes. If no dissolution was observed, another aliquot of solvent was added and samples were placed in the shaking chamber at 50° C. for 10 more minutes. This procedure was repeated until dissolution was achieved or a maximum of 400 vol was added."}, "[2]": {"test_system": "CYP450 isozymes 1A2, 2A6, 2B6, 2C8, 2C9, 2C19, 2D6", "test": "Loss of RX-5902 after incubation with other expressed CYP450 isozymes", "format": "in vitro ADME", "settings": "30-minute incubation with any other CYP isozyme", "description": "(§1) Two in vitro studies were performed to examine the involvement of specific cytochrome P450 (CYP450) isozymes in the in vitro metabolism of RX-5902. In the first study, the loss of RX-5902 was measured after incubation with expressed CYP450 isozymes (1A2, 2A6, 2B6, 2C8, 2C9, 2C19, 2D6, 3A4 and 3A5). […] In the second study, RX-5902 was incubated with pooled human liver microsomes in the presence of CYP450 isozyme-selective chemical inhibitors. The inhibitors tested were selective for 1A2, 2A6, 2B6, 2C8, 2C9, 2C19, 2D6, and 3A4/5."}, "[3]": {"test_system": "pooled human liver microsomes", "test": "RX-5902 metabolism in liver microsomes with CYP450 isozyme-selective chemical inhibitors", "format": "in vitro ADME", "description": "as §1"}, "unphosphorylated p68": {"molecular_target": "T1, unphosphorylated p68 (Homo sapiens, UniProt P17844)", "T1 construct": "purchased Origene (Rockville, Md.)", "T1 sequence (P17844 whole entry)": "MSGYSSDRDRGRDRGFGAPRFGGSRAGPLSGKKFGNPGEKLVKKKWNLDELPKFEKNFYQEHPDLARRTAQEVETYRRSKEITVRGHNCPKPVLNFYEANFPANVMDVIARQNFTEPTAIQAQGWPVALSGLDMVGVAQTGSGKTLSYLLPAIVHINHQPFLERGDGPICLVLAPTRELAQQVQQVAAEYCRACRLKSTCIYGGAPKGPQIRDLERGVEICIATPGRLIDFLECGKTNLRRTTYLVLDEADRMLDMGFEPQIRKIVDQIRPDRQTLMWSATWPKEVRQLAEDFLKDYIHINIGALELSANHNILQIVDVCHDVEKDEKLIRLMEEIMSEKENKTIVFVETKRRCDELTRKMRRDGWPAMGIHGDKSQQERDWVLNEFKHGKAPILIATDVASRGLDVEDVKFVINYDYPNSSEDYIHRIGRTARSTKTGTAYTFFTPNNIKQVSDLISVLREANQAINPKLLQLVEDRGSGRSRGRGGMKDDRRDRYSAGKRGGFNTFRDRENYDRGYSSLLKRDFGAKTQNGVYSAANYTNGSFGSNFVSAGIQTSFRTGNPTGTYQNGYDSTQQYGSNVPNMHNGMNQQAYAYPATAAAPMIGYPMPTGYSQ", "test": "Filter binding assay with 3H-labeled RX-5902", "settings": "filter binding studies", "description": "(§2) Recombinant β-catenin was used without further treatment whereas recombinant p68 protein was either used as p68 or phosphorylated by c-Abl for filter binding assay. Recombinant c-Abl was obtained from Abeam (Cambridge, Mass.).\n(§3) Filter binding studies have been previously described elsewhere (Coombs et al., Proc. Natl. Acad. Sci. USA, 75:5291-5295 (1978). Briefly, recombinant p68 RNA helicase with/without tyrosine phosphorylation was added to the ^3H-labeled RX-5902 (10 Ci/mmol) with PBS. ^3H-labeled RX-5902 was synthesized from Quotient Bioresearch (Cardiff, UK). After incubation at room temperature for 30 minutes, the binding mixtures were loaded onto a nitrocellulose membrane. The membrane was washed five times with PBS, and then dried by vacuum. The amounts of RX-5902 bound to p68 with/without phosphorylation of p68 were determined by ^3H scintillation counting. The same procedure was done with ^3H-labeled RX-5902 alone without addition of p68 RNA helicase and sample p68 RNA helicase alone without addition of the ^3H-labeled RX-5902 as background ^3H scintillation counting. The binding percentages of p68 to the compound were calculated and plotted against concentrations. The dissociation constant (Kd) was estimated by the concentration at 50% of p68 bound to RX-5902 and calculated by linear regression analysis."}, "Y593 phospho-p68": {"molecular_target": "T2, Y593 phospho-p68 (Homo sapiens, UniProt P17844)", "T2 construct": "purchased Origene (Rockville, Md.)", "T2 sequence (P17844 whole entry)": "as above", "test": "Filter binding assay with 3H-labeled RX-5902", "settings": "estimated by 50% of p68 bound to RX-5902", "description": "as §2, §3"}, "p68 RNA helicase": {"molecular_target": "T3, p68 RNA helicase (Homo sapiens, UniProt P17844)", "T3 construct": "made in house", "T3 sequence (P17844 whole entry)": "as above", "test": "RNA-dependent ATPase assay", "format": "biochemical", "settings": "total RNA extracted from yeast", "description": "ATPase activity was determined by measuring the released inorganic phosphate during ATP hydrolysis using a direct colorimetric assay (Shin et al., Cancer Res., 67:7572-7578 (2007); Yang et. al., Cell, 127:139-155 (2006)). A typical ATPase assay was carried out in 50 μl reaction volumes, containing 20 mM Tris-HCl pH 7.5, 200 mM NaCl, 1 mM MgCl2, 5 mM DTT, ˜1-2 of appropriate substrate, 4 mM ATP, and 10 μl of helicase. The ATPase reactions were incubated at 37° C. for 30 minutes. After incubation, 1 ml of malachitegreen-molybdenum reagent was added to the reaction mixture, and reactions were further incubated at room temperature for exactly 5 minutes. The absorption (A) at 630 nm was then measured. The concentrations of inorganic phosphate were determined by matching the A630nm in a standard curve of A630nm vs. known phosphate concentrations. […] The percentage of inhibition by defining the ATPase activity of phospho-p68 without RX-5902 as zero percent inhibition was calculated and IC50 of RX-5902 was calculated by non-linear regression analysis using Kaledia Graph software program (Synergy Software, Reading, Pa.).\nThe effect of RX-5902 on ATPase activity of p68 was investigated. To do this, ATPase activity of recombinant p68 in the presence of RX-5902 and total RNA extracted from yeast were measured."}, "[4]": {"test": "Human safety and tolerability, dose-ranging study", "format": "in vivo", "settings": "oral capsules", "description": "In a dose-ranging study, the pharmacokinetics (PK), safety and tolerability of RX-5902 at various oral doses were evaluated. Subjects with advanced or metastatic solid tumors were administered capsules containing RX-5902 at daily doses of 25-775 mg once weekly, 250-300 mg three times a week, 150-300 mg five times a week, or 300-350 mg seven times a week of RX-5902 for up to 6 dosing cycles. Each cycle consisting of 1-5 doses of RX-5902 per week for 3 weeks followed by 1 week of rest, or 5-7 doses of RX-5902 per week for 4 weeks without any rest per 4-week cycle. All but one subject had fasted from food for at least 8 hours before administration. One subject received 300 mg RX-5902 in fed state. Plasma concentrations were measured on Days 1 and 15, for 48 hrs, using a validated LC-MS/MS assay, and noncompartmental pharmacokinetic parameters were calculated using Phoenix WinNonlin, Version 6.4."}}, "note": "Like-named read-outs stand apart in the source and are kept apart here.", "data": [{"compound": "COc1cc(OC)cc(N2CCN(C(=O)Nc3nc4cc(F)ccc4nc3OC)CC2)c1", "note": "[RX-5902, 4-(3,5-dimethoxyphenyl)-N-(7-fluoro-3-methoxyquinoxalin-2-yl)piperazine-1-carboxamide]", "values": [{"measurement": "solubility at 10 min", "setting": "[1]; DMSO, 50 °C, read-out: Solubility at 50° C.", "result": "≥ 100", "unit": "mg/mL"}, {"measurement": "solubility at 10 min", "setting": "[1]; DMSO, read-out: Solubility at RT", "result": "< 100", "unit": "mg/mL"}, {"measurement": "solubility at 10 min", "setting": "[1]; MEK, 50 °C, read-out: Solubility at 50° C.", "result": "≥ 12.5", "unit": "mg/mL"}, {"measurement": "solubility at 10 min", "setting": "[1]; MEK, read-out: Solubility at RT", "result": "< 100", "unit": "mg/mL"}, {"measurement": "solubility at 10 min", "setting": "[1]; MIBK, 50 °C, read-out: Solubility at 50° C.", "result": "≥ 6.25", "unit": "mg/mL"}, {"measurement": "solubility at 10 min", "setting": "[1]; MIBK, read-out: Solubility at RT", "result": "< 100", "unit": "mg/mL"}, {"measurement": "solubility at 10 min", "setting": "[1]; THF, 50 °C, read-out: Solubility at 50° C.", "result": "≥ 25", "unit": "mg/mL"}, {"measurement": "solubility at 10 min", "setting": "[1]; THF, read-out: Solubility at RT", "result": "< 100", "unit": "mg/mL"}, {"measurement": "solubility at 10 min", "setting": "[1]; acetone, 50 °C, read-out: Solubility at 50° C.", "result": "≥ 12.5", "unit": "mg/mL"}, {"measurement": "solubility at 10 min", "setting": "[1]; acetone, read-out: Solubility at RT", "result": "< 100", "unit": "mg/mL"}, {"measurement": "solubility at 10 min", "setting": "[1]; acetonitrile, 50 °C, read-out: Solubility at 50° C.", "result": "≥ 12.5", "unit": "mg/mL"}, {"measurement": "solubility at 10 min", "setting": "[1]; acetonitrile, read-out: Solubility at RT", "result": "< 100", "unit": "mg/mL"}, {"measurement": "solubility at 10 min", "setting": "[1]; ethanol, 50 °C, read-out: Solubility at 50° C.", "result": "≥ 2.5", "unit": "mg/mL"}, {"measurement": "solubility at 10 min", "setting": "[1]; ethanol, read-out: Solubility at RT", "result": "< 100", "unit": "mg/mL"}, {"measurement": "solubility at 10 min", "setting": "[1]; ethyl acetate, 50 °C, read-out: Solubility at 50° C.", "result": "≥ 12.5", "unit": "mg/mL"}, {"measurement": "solubility at 10 min", "setting": "[1]; ethyl acetate, read-out: Solubility at RT", "result": "< 100", "unit": "mg/mL"}, {"measurement": "solubility at 10 min", "setting": "[1]; isopropanol-10% water, 50 °C, read-out: Solubility at 50° C.", "result": "≥ 2.5", "unit": "mg/mL"}, {"measurement": "solubility at 10 min", "setting": "[1]; isopropanol-10% water, read-out: Solubility at RT", "result": "< 100", "unit": "mg/mL"}, {"measurement": "solubility at 10 min", "setting": "[1]; methanol, 50 °C, read-out: Solubility at 50° C.", "result": "≥ 2.5", "unit": "mg/mL"}, {"measurement": "solubility at 10 min", "setting": "[1]; methanol, read-out: Solubility at RT", "result": "< 100", "unit": "mg/mL"}, {"measurement": "loss of RX-5902", "setting": "[2]", "result": "little loss"}, {"measurement": "inhibition of RX-5902 metabolism", "setting": "[3]; in the presence of a CYP3A4/5-selective inhibitor (ketoconazole)", "result": "Marked inhibition"}, {"measurement": "inhibition of RX-5902 metabolism", "setting": "[3]; with inhibitors of the other isozymes (1A2, 2A6, 2B6, 2C8, 2C9, 2C19, 2D6)", "result": "no significant inhibition"}, {"measurement": "interaction with unphosphorylated p68", "setting": "unphosphorylated p68", "result": "did not interact"}, {"measurement": "Kd", "setting": "Y593 phospho-p68", "result": "~19", "unit": "nM"}, {"measurement": "effect on RNA-dependent ATPase activity", "setting": "p68 RNA helicase; 0.2 μM", "result": "did not affect"}, {"measurement": "inhibition of RNA-dependent ATPase activity", "setting": "p68 RNA helicase; 20 μM", "result": "less than 30%"}, {"measurement": "most frequently reported adverse events", "setting": "[4]; 25-775 mg", "result": "mild nausea, vomiting and fatigue"}, {"measurement": "tolerability", "setting": "[4]; at the tested dose levels (25-775 mg)", "result": "well tolerated"}]}]}
